In ChEMBL document CHEMBL3885861, “Open TG-GATES”:

Species on record: Rattus norvegicus
Assay: Open TG-GATES - Regimen: Daily Repeat
Type: toxicity, organism-based, Sprague-Dawley
Design: regimen Daily Repeat, gender Male, age 6 weeks
Details: in vivo, po, 2 mg/kg, route gavage, dose level Low; for APTT / Bas / Eos / Fbg / Hb / Ht / Lym / MCH / MCHC / MCV / Mono / Neu / PT / Plat / RBC / Ret / WBC: tissue Blood; for KIDNEY_L / KIDNEY_R / KIDNEY_TOTAL: tissue Kidney; for LIVER: tissue Liver; for ALP / ALT / AST / BUN / CRE / Ca / Cl / DBIL / GLC / IP / K / LDH / Na / PL / RALB / TBIL / TC / TG / TP / gamma-GTP: tissue Plasma

O=P1(N(CCCl)CCCl)NCCCO1 (stereo not drawn) [CYCLOPHOSPHAMIDE ANHYDROUS]
TERMINAL_BW (72 h, time 3 day): 217.7 g
APTT (72 h, time 3 day): 20.8 s
Bas (72 h, time 3 day): 0%
Eos (72 h, time 3 day): 1%
Fbg (72 h, time 3 day): 299.8 mg/dL
Hb (72 h, time 3 day): 13.3 g/dL
Ht (72 h, time 3 day): 40.1%
Lym (72 h, time 3 day): 79.8%
MCH (72 h, time 3 day): 21.3 pg
MCHC (72 h, time 3 day): 33.1%
MCV (72 h, time 3 day): 64.3 fL
Mono (72 h, time 3 day): 3%
Neu (72 h, time 3 day): 15%
PT (72 h, time 3 day): 16.5 s
Plat (72 h, time 3 day): 126.5 x10_4/uL
RBC (72 h, time 3 day): 624.6 x10_4/ul
Ret (72 h, time 3 day): 6.5%
WBC (72 h, time 3 day): 74.5 x10_2/uL
KIDNEY_L (72 h, time 3 day): 1 g
KIDNEY_R (72 h, time 3 day): 1 g
KIDNEY_TOTAL (72 h, time 3 day): 1.9 g
LIVER (72 h, time 3 day): 10.2 g
ALP (72 h, time 3 day): 1778.2 IU/L
ALT (72 h, time 3 day): 40.2 IU/L
AST (72 h, time 3 day): 67 IU/L
BUN (72 h, time 3 day): 17.8 mg/dL
CRE (72 h, time 3 day): 0.2 mg/dL
Ca (72 h, time 3 day): 10.8 mg/dL
Cl (72 h, time 3 day): 106 meq/L
DBIL (72 h, time 3 day): 0 mg/dL
GLC (72 h, time 3 day): 187.4 mg/dL
IP (72 h, time 3 day): 7.1 mg/dL
K (72 h, time 3 day): 4.1 meq/L
LDH (72 h, time 3 day): 164.8 IU/L
Na (72 h, time 3 day): 141.8 meq/L
PL (72 h, time 3 day): 160.8 mg/dL
RALB (72 h, time 3 day): 3.1 g/dL
TBIL (72 h, time 3 day): 0.012 mg/dL
TC (72 h, time 3 day): 78.2 mg/dL
TG (72 h, time 3 day): 121.6 mg/dL
TP (72 h, time 3 day): 5.6 g/dL
gamma-GTP (72 h, time 3 day): 1.2 IU/L
TERMINAL_BW ([…], time 7 day): 254.7 g
TERMINAL_BW ([…], time 14 day): 305.2 g
TERMINAL_BW ([…], time 28 day): 367.9 g
APTT ([…], time 7 day): 22.6 s
Bas ([…], time 7 day): 0%
Eos ([…], time 7 day): 0.6%
Fbg ([…], time 7 day): 282.6 mg/dL
Hb ([…], time 7 day): 13.3 g/dL
Ht ([…], time 7 day): 40.1%
Lym ([…], time 7 day): 80.8%
MCH ([…], time 7 day): 21.7 pg
MCHC ([…], time 7 day): 33.2%
MCV ([…], time 7 day): 65.3 fL
Mono ([…], time 7 day): 2.4%
Neu ([…], time 7 day): 15.4%
PT ([…], time 7 day): 16.8 s
Plat ([…], time 7 day): 130 x10_4/uL
RBC ([…], time 7 day): 613.8 x10_4/ul
Ret ([…], time 7 day): 5.8%
WBC ([…], time 7 day): 88.7 x10_2/uL
APTT ([…], time 14 day): 22.2 s
Bas ([…], time 14 day): 0%
Eos ([…], time 14 day): 0.8%
Fbg ([…], time 14 day): 315 mg/dL
Hb ([…], time 14 day): 13.9 g/dL
Ht ([…], time 14 day): 41%
Lym ([…], time 14 day): 82.6%
MCH ([…], time 14 day): 20.2 pg
MCHC ([…], time 14 day): 33.9%
MCV ([…], time 14 day): 59.7 fL
Mono ([…], time 14 day): 2.4%
Neu ([…], time 14 day): 13.2%
PT ([…], time 14 day): 14.8 s
Plat ([…], time 14 day): 121.1 x10_4/uL
RBC ([…], time 14 day): 687.8 x10_4/ul
Ret ([…], time 14 day): 4.7%
WBC ([…], time 14 day): 88.9 x10_2/uL
APTT ([…], time 28 day): 23.3 s
Bas ([…], time 28 day): 0%
Eos ([…], time 28 day): 1%
Fbg ([…], time 28 day): 302.6 mg/dL
Hb ([…], time 28 day): 14.7 g/dL
Ht ([…], time 28 day): 42.7%
Lym ([…], time 28 day): 78.4%
MCH ([…], time 28 day): 19.4 pg
MCHC ([…], time 28 day): 34.5%
MCV ([…], time 28 day): 56.1 fL
Mono ([…], time 28 day): 2.2%
Neu ([…], time 28 day): 17.2%
PT ([…], time 28 day): 16.4 s
Plat ([…], time 28 day): 98.2 x10_4/uL
RBC ([…], time 28 day): 761.2 x10_4/ul
Ret ([…], time 28 day): 2.6%
WBC ([…], time 28 day): 84.8 x10_2/uL
KIDNEY_L ([…], time 7 day): 1.1 g
KIDNEY_R ([…], time 7 day): 1.1 g
KIDNEY_TOTAL ([…], time 7 day): 2.3 g
KIDNEY_L ([…], time 14 day): 1.2 g
KIDNEY_R ([…], time 14 day): 1.2 g
KIDNEY_TOTAL ([…], time 14 day): 2.5 g
KIDNEY_L ([…], time 28 day): 1.3 g
KIDNEY_R ([…], time 28 day): 1.3 g
KIDNEY_TOTAL ([…], time 28 day): 2.6 g
LIVER ([…], time 7 day): 12 g
LIVER ([…], time 14 day): 13.3 g
LIVER ([…], time 28 day): 14.1 g
ALP ([…], time 7 day): 1581 IU/L
ALT ([…], time 7 day): 41.4 IU/L
AST ([…], time 7 day): 69.4 IU/L
BUN ([…], time 7 day): 16.6 mg/dL
CRE ([…], time 7 day): 0.2 mg/dL
Ca ([…], time 7 day): 10.9 mg/dL
Cl ([…], time 7 day): 105 meq/L
DBIL ([…], time 7 day): 0 mg/dL
GLC ([…], time 7 day): 184.6 mg/dL
IP ([…], time 7 day): 7.7 mg/dL
K ([…], time 7 day): 4.2 meq/L
LDH ([…], time 7 day): 193.6 IU/L
Na ([…], time 7 day): 143.2 meq/L
PL ([…], time 7 day): 158.2 mg/dL
RALB ([…], time 7 day): 3 g/dL
TBIL ([…], time 7 day): 0.02 mg/dL
TC ([…], time 7 day): 76.8 mg/dL
TG ([…], time 7 day): 137.2 mg/dL
TP ([…], time 7 day): 5.5 g/dL
gamma-GTP ([…], time 7 day): 3.6 IU/L
ALP ([…], time 14 day): 1389 IU/L
ALT ([…], time 14 day): 34.4 IU/L
AST ([…], time 14 day): 60.6 IU/L
BUN ([…], time 14 day): 18.2 mg/dL
CRE ([…], time 14 day): 0.2 mg/dL
Ca ([…], time 14 day): 10.7 mg/dL
Cl ([…], time 14 day): 107.2 meq/L
DBIL ([…], time 14 day): 0.002 mg/dL
GLC ([…], time 14 day): 174.4 mg/dL
IP ([…], time 14 day): 6.5 mg/dL
K ([…], time 14 day): 4.2 meq/L
LDH ([…], time 14 day): 141.4 IU/L
Na ([…], time 14 day): 142.8 meq/L
PL ([…], time 14 day): 150.4 mg/dL
RALB ([…], time 14 day): 3.1 g/dL
TBIL ([…], time 14 day): 0.022 mg/dL
TC ([…], time 14 day): 71.4 mg/dL
TG ([…], time 14 day): 145.6 mg/dL
TP ([…], time 14 day): 5.7 g/dL
gamma-GTP ([…], time 14 day): 2 IU/L
ALP ([…], time 28 day): 1055.8 IU/L
ALT ([…], time 28 day): 34.8 IU/L
AST ([…], time 28 day): 61.4 IU/L
BUN ([…], time 28 day): 18.2 mg/dL
CRE ([…], time 28 day): 0.2 mg/dL
Ca ([…], time 28 day): 10.3 mg/dL
Cl ([…], time 28 day): 105.8 meq/L
DBIL ([…], time 28 day): 0 mg/dL
GLC ([…], time 28 day): 175.2 mg/dL
IP ([…], time 28 day): 6.6 mg/dL
K ([…], time 28 day): 4 meq/L
LDH ([…], time 28 day): 131.6 IU/L
Na ([…], time 28 day): 144.2 meq/L
PL ([…], time 28 day): 141.8 mg/dL
RALB ([…], time 28 day): 3.1 g/dL
TBIL ([…], time 28 day): 0.02 mg/dL
TC ([…], time 28 day): 72.6 mg/dL
TG ([…], time 28 day): 138.4 mg/dL
TP ([…], time 28 day): 6.2 g/dL
gamma-GTP ([…], time 28 day): 1 IU/L
